Like-named read-outs stand apart in the source and are kept apart here.
Target: PCAF bromodomain (His/Flag epitope tagged PCAF719-832) (Homo sapiens (Human), UniProt Q92831)
Assay: PCAF AlphaLisa binding assay
Protocol: IC50 Measurements for Inhibitors Using PCAF AlphaLisa Binding Assay
PCAF bromodomain binding and inhibition of the compounds disclosed herein was assessed by monitoring the engagement of biotinylated small molecule ligand (known to bind to the PCAF bromodomain) with the target using the AlphaLisa technology (Perkin-Elmer).

[1] = AlphaLisa, PCAF bromodomain 225 nM, biotinylated small molecule ligand 6 nM, read-out: PCAF IC50

Sequence of PCAF bromodomain (His/Flag epitope tagged PCAF719-832) (Q92831 719-832): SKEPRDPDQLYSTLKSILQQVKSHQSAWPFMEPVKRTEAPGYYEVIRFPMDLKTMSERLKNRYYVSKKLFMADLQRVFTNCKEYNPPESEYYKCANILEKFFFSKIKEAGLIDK

Compound	IC50 [1]	IC50
CN1CCCCC(Nc2cnn(C)c(=O)c2Cl)C1 (racemic) [Example 1, 4-chloro-2-methyl-5-((1-methylazepan-3-yl)amino)pyridazin-3(2H)-one]	62 nM	
CN1CCCC(Nc2cnn(C)c(=O)c2Cl)CC1 (racemic) [Example 4, (racemic)-4-chloro-2-methyl-5-((1-methylazepan-4-yl)amino)pyridazin-3(2H)-one]	187 nM	
Cn1ncc(NC2CN3CCC2CC3)c(Cl)c1=O (racemic) [Example 10, (racemic)-4-chloro-2-methyl-5-(quinuclidin-3-ylamino)pyridazin-3(2H)-one]		975 nM
Cn1ncc(NC2CCCOC2)c(Cl)c1=O (racemic) [Example 11, (racemic)-4-chloro-2-methyl-5-((tetrahydro-2H-pyran-3-yl)amino)pyridazin-3(2H)-one]	1020 nM	
CN1CC(Nc2cnn(C)c(=O)c2Cl)CC(c2ccccc2)C1 (racemic) [Example 24, 4-chloro-2-methyl-5-((1-methyl-5-phenylpiperidin-3-yl)amino)pyridazin-3(2H)-one]	167 nM	
C[C@@H]1CC[C@@H](Nc2cnn(C)c(=O)c2Cl)CN1C (stereo in doubt) [Example 26, 4-chloro-5-((1,6-dimethylpiperidin-3-yl)amino)-2-methylpyridazin-3(2H)-one]	34.8 nM	
C[C@@H]1CC[C@H](Nc2cnn(C)c(=O)c2Cl)CN1C (stereo in doubt) [Example 27, 4-chloro-5-((1,6-dimethylpiperidin-3-yl)amino)-2-methylpyridazin-3(2H)-one]	144 nM	
C[C@@H]1CC[C@@H](Nc2cnn(C)c(=O)c2Cl)CN1C (stereo in doubt) [Example 28, 4-chloro-5-((1,6-dimethylpiperidin-3-yl)amino)-2-methylpyridazin-3(2H)-one]	175 nM	
C[C@H]1CC[C@@H](Nc2cnn(C)c(=O)c2Cl)CN1C (stereo in doubt) [Example 29, 4-chloro-5-((1,6-dimethylpiperidin-3-yl)amino)-2-methylpyridazin-3(2H)-one]	48.5 nM	
CN1CCC(Nc2cnn(C)c(=O)c2Cl)CC1 [Example 2, 4-chloro-2-methyl-5-((1-methylpiperidin-4-yl)amino)pyridazin-3(2H)-one]	1220 nM	
CN1[C@@H]2CC[C@H]1C[C@@H](Nc1cnn(C)c(=O)c1Cl)C2 [Example 5, 4-chloro-2-methyl-5-(((1R,3r,5S)-8-methyl-8-azabicyclo[3.2.1]octan-3-yl)amino)pyridazin-3(2H)-one]	480 nM	
CN1[C@@H]2CC[C@H]1C[C@H](Nc1cnn(C)c(=O)c1Cl)C2 [Example 6, 4-chloro-2-methyl-5-(((1R,3s,5S)-8-methyl-8-azabicyclo[3.2.1]octan-3-yl)amino)pyridazin-3(2H)-one]	492 nM	
Cn1ncc(NC2CCCN(c3ccccn3)C2)c(Cl)c1=O (stereo not shown) [Example 9, 4-chloro-2-methyl-5-((1-(pyridin-2-yl)piperidin-3-yl)amino)pyridazin-3(2H)-one]	403 nM	
Cc1c(NC2CCCCN(C)C2)cnn(C)c1=O (stereo not shown) [Example 12, 2,4-dimethyl-5-((1-methylazepan-3-yl)amino)pyridazin-3(2H)-one]	165 nM	
CN1CCCCC(Nc2cnn(C)c(=O)c2Br)C1 (stereo not shown) [Example 13, 4-bromo-2-methyl-5-((1-methylazepan-3-yl)amino)pyridazin-3(2H)-one]	51 nM	
CC(C)n1ncc(NC2CCCCN(C)C2)c(Cl)c1=O (stereo not shown) [Example 14, 4-chloro-2-isopropyl-5-((1-methylazepan-3-yl)amino)pyridazin-3(2H)-one]	1090 nM	
CCn1ncc(NC2CCCCN(C)C2)c(Cl)c1=O (stereo not shown) [Example 15, 4-chloro-2-ethyl-5-((1-methylazepan-3-yl)amino)pyridazin-3(2H)-one]	407 nM	
CN1CCCCC(Nc2cnn(CC3CC3)c(=O)c2Cl)C1 (stereo not shown) [Example 16, 4-chloro-2-(cyclopropylmethyl)-5((1-methylazepan-3-yl)amino)pyridazin-3(2H)-one]	421 nM	
C/C=C/Cn1ncc(NC2CCCCN(C)C2)c(Cl)c1=O (stereo not shown) [Example 17, (E)-2-(but-2-en-1-yl)-4-chloro-5-((1-methylazepan-3-yl)amino)pyridazin-3(2H)-one]	312 nM	
CC1CCC(Nc2cnn(C)c(=O)c2Cl)CN1C (stereo not shown) [Example 25, 4-chloro-5-((1,6-dimethylpiperidin-3-yl)amino)-2-methylpyridazin-3(2H)-one]	60 nM	
COCCN1CCCC(Nc2cnn(C)c(=O)c2Cl)C1 (stereo not shown) [Example 30, 4-chloro-5-((1-(2-methoxyethyl)piperidin-3-yl)amino)-2-methylpyridazin-3(2H)-one]	315 nM	
Cn1ncc(NC2CCCN(C3COC3)C2)c(Cl)c1=O (stereo not shown) [Example 31, 4-chloro-2-methyl-5-((1-(oxetan-3-yl)piperidin-3-yl)amino)pyridazin-3(2H)-one]	1220 nM	

Compound	IC50 [1]	IC50
CC(C)N1CCCC(Nc2cnn(C)c(=O)c2Cl)C1 (stereo not shown) [Example 32, 4-chloro-5-((1-isopropylpiperidin-3-yl)amino)-2-methylpyridazin-3(2H)-one]	147 nM	
Cn1ncc(NC2CCCN(Cc3ccccn3)C2)c(Cl)c1=O (stereo not shown) [Example 33, 4-chloro-2-methyl-5-((1-(pyridin-2-ylmethyl)piperidin-3-yl)amino)pyridazin-3(2H)-one]	1980 nM	
C[C@H](c1ccccc1)N1CCCC(Nc2cnn(C)c(=O)c2Cl)C1 (stereo partly drawn) [Example 35, 4-chloro-2-methyl-5-((1-((R)-1-phenylethyl)piperidin-3-yl)amino)pyridazin-3(2H)-one]	671 nM	
C[C@@H](c1ccccc1)N1CCCC(Nc2cnn(C)c(=O)c2Cl)C1 (stereo partly drawn) [Example 36, 4-chloro-2-methyl-5-((1-((S)-1-phenylethyl)piperidin-3-yl)amino)pyridazin-3(2H)-one]	631 nM	
Cn1ncc(N[C@@H]2CCCCN(Cc3ccccc3)C2)c(Cl)c1=O [Example 37, (R)-5-((1-benzylazepan-3-yl)amino)-4-chloro-2-methylpyridazin-3(2H)-one]	972 nM	
Cn1ncc(N[C@H]2CCCCN(Cc3ccccc3)C2)c(Cl)c1=O [Example 38, (S)-5-((1-benzylazepan-3-yl)amino)-4-chloro-2-methylpyridazin-3(2H)-one]	3770 nM	
CN1Cc2ccccc2C[C@@H](Nc2cnn(C)c(=O)c2Cl)C1 [Example 39, (R)-4-chloro-2-methyl-5-((2-methyl-2,3,4,5-tetrahydro-1H-benzo[c]azepin-4-yl)amino)pyridazin-3(2H)-one]	102 nM	
CN1CCCCCC(Nc2cnn(C)c(=O)c2Cl)C1 (stereo not shown) [Example 40, 4-chloro-2-methyl-5-((1-methylazocan-3-yl)amino)pyridazin-3(2H)-one]	155 nM	
Cn1ncc(NC2CCCN(Cc3c(F)cccc3F)C2)c(Cl)c1=O (stereo not shown) [Example 42, 4-chloro-5-((1-(2,6-difluorobenzyl)piperidin-3-yl)amino)-2-methylpyridazin-3(2H)-one]	1000 nM	
CN(C)c1ccc(CN2CCCC(Nc3cnn(C)c(=O)c3Cl)C2)cc1 (stereo not shown) [Example 43, 4-chloro-5-[[1-[(4-dimethylaminophenyl)methyl]-3-piperidyl]amino]-2-methyl-pyridazin-3-one]	310 nM	
Cn1ncc(NC2CCCN(Cc3cccc(OC(F)F)c3)C2)c(Cl)c1=O (stereo not shown) [Example 44, 4-chloro-5-[[1-[[3-(difluoromethoxy)phenyl]methyl]-3-piperidyl]amino]-2-methyl-pyridazin-3-one]	94.9 nM	
Cn1ncc(NC2CCCN(Cc3ccc(-n4ccnc4)cc3)C2)c(Cl)c1=O (stereo not shown) [Example 45, 4-chloro-5-[[1-[(4-imidazol-1-ylphenyl)methyl]-3-piperidyl]amino]-2-methyl-pyridazin-3-one]	386 nM	
Cn1ncc(NC2CCCN(Cc3cc(Cl)cc(Cl)c3)C2)c(Cl)c1=O (stereo not shown) [Example 46, 4-chloro-5-((1-(3,5-dichlorobenzyl)piperidin-3-yl)amino)-2-methylpyridazin-3(2H)-one]	278 nM	
Cn1ncc(NC2CCCN(Cc3ccccc3N3CCOCC3)C2)c(Cl)c1=O (stereo not shown) [Example 47, 4-chloro-2-methyl-5-[[1-[(2-morpholinophenyl)methyl]-3-piperidyl]amino]pyridazin-3-one]	921 nM	
Cn1ncc(NC2CCCN(Cc3ncc[nH]3)C2)c(Cl)c1=O (stereo not shown) [Example 48, 4-chloro-5-[[1-(1H-imidazol-2-ylmethyl)-3-piperidyl]amino]-2-methyl-pyridazin-3-one]	379 nM	
Cn1ncc(NC2CCCN(Cc3c[nH]cn3)C2)c(Cl)c1=O (stereo not shown) [Example 49, 4-chloro-5-[[1-(1H-imidazol-4-ylmethyl)-3-piperidyl]amino]-2-methyl-pyridazin-3-one]	178 nM	
Cn1ncc(NC2CCCN(Cc3cncnc3)C2)c(Cl)c1=O (stereo not shown) [Example 50, 4-chloro-2-methyl-5-[[1-(pyrimidin-5-ylmethyl)-3-piperidyl]amino]pyridazin-3-one]	625 nM	
Cn1cc(CN2CCCC(Nc3cnn(C)c(=O)c3Cl)C2)cn1 (stereo not shown) [Example 51, 4-chloro-2-methyl-5-[[1-[(1-methylpyrazol-4-yl)methyl]-3-piperidyl]amino]pyridazin-3-one]	371 nM	
Cn1ccnc1CN1CCCC(Nc2cnn(C)c(=O)c2Cl)C1 (stereo not shown) [Example 52, 4-chloro-2-methyl-5-((1-((1-methyl-1H-imidazol-2-yl)methyl)piperidin-3-yl)amino)pyridazin-3(2H)-one]	1410 nM	
Cc1cncc(CN2CCCC(Nc3cnn(C)c(=O)c3Cl)C2)c1 (stereo not shown) [Example 53, 4-chloro-2-methyl-5-[[1-[(5-methyl-3-pyridyl)methyl]-3-piperidyl]amino]pyridazin-3-one]	441 nM	
Cc1nc(CN2CCCC(Nc3cnn(C)c(=O)c3Cl)C2)[nH]c1C (stereo not shown) [Example 54, 4-chloro-5-[[1-[(4,5-dimethyl-1H-imidazol-2-yl)methyl]-3-piperidyl]amino]-2-methyl-pyridazin-3-one]	1440 nM	

Source: patent US10239861B2, “Therapeutic compounds and uses thereof” (GENENTECH, INC., priority 2015, dated 2019)
